We go through 2 substances from paper doi:10.1101/2025.11.18.689095 (bioRxiv, 2025).

For assay [1], the target named is T1, human Tom70 (residues 108–608) (Homo sapiens, UniProt O94826).
T1 construct: human Tom70 (residues 108–608); Avi tag (N, cleaved yes); His6 tag (N, cleaved yes); (GGS)5 linker and TEV cleavage site (N, cleaved yes); made in house; host or cells: E. coli BL21 (DE3)
T1 sequence (O94826 108-608): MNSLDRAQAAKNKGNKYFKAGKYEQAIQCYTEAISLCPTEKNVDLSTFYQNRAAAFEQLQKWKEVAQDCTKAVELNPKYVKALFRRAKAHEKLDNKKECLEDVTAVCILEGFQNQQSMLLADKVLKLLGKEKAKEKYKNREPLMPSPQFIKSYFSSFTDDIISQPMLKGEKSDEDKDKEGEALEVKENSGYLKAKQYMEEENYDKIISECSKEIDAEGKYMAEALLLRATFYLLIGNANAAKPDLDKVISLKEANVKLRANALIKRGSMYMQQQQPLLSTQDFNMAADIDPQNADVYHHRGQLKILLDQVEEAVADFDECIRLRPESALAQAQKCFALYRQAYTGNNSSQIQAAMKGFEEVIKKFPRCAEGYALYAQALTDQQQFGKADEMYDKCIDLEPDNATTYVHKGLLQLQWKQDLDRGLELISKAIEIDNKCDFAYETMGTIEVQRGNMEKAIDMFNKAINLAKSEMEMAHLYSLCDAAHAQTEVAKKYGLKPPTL
The experiment in a line: ITC, Hsp90 binding to free Tom70. The procedure: (§1) All ITC experiments were recorded at 20°C using a Microcal-PEAQ-ITC calorimeter (Malvern Panalytical). Experiments involving full-length Hsp90 or the Hsp90EEVD peptide were carried out in buffer containing 20 mM sodium phosphate (pH 8), 150 mM NaCl, 2 mM TCEP, and 10% glycerol. 10% glycerol was required to prevent precipitation of Hsp90 during titration.
(§2) Unbound Orf9bHelix was removed via multiple rounds of concentration and buffer exchange on a concentrator (Vivaspin 20, Satorius). Orf9b truncation mutant complexes were produced in the same way. Experiments involving the binding of Orf9bHelix titrated into Tom70 were carried out in buffer containing 20 mM sodium phosphate (pH 7), 100 mM NaCl, and 2 mM TCEP. Orf9bHelix (120 μM) was titrated into 15 μM Tom70 or Tom70:Hsp90EEVD complex (15 μM Tom70: 400 μM Hsp90EEVD).
(§3) All data was fit using a 1:1 binding model to obtain the reported thermodynamic parameters using the software provided by the instrument. Reported parameters are the average and standard deviation of individual runs of the experiment, as outlined in supplementary information (Figs S3 and S9).
(ITC needs no label: the signal is the heat of the interaction.)

The target in assay [2] is Tom70:Orf9b complex. Also noted: species or system human Tom70; SARS-CoV-2 Orf9b. The note with it: read-out: binding affinity (KD) of full-length Hsp90 to Tom70:Orf9b complex; pH 8.
In assay [3] the target is T2, Tom70:Orf9bHelix complex (Homo sapiens, UniProt O94826).
T2 construct: human Tom70 (residues 108–608); Avi tag (N, cleaved yes); His6 tag (N, cleaved yes); (GGS)5 linker and TEV cleavage site (N, cleaved yes); host or cells: E. coli BL21 (DE3) for Tom70; synthetic peptide
Format: binding, human Tom70; SARS-CoV-2 Orf9b. The note with it: pH 8.

For a further assay, the system named is Tom70. The experiment in a line: BLI kinetics, Hsp90 with free Tom70. Format: binding, human. The procedure:
We therefore indirectly estimated kon values by combining koff values obtained from BLI with KD values determined by ITC, i.e., kon=koffBLI/KDITC .
Biotinylated Hsp90 proteins were immobilized onto streptavidin biosensor probes, and experiments were conducted in buffer containing 20 mM sodium phosphate (pH 7), 150 mM NaCl, 1% BSA, 0.6 M sucrose, and 1 mM TCEP[68]. […] To combat heterogenous binding, dissociation curves were fit with a two-phase exponential curve. Due to the association rate (kon) being too rapid to quantify, kon values were indirectly estimated by combining koff values obtained from BLI with KD values determined by ITC ( kon=koffBLI/KDITC ). All data are corrected for non-specific binding. Error is given as the standard deviation of at least two measurements.
In general terms: Biolayer interferometry detects binding as a change in optical thickness at a sensor tip.

The test system of assay [4] is Tom70:Orf9b complex. Format: binding, human Tom70; SARS-CoV-2 Orf9b.
Assay [5] has as its target T1, human Tom70 (residues 108–608). The experiment in a line: ITC, Hsp90EEVD peptide binding to free Tom70. To be noted: 20°C, pH 8, 150 mM NaCl, 2 mM TCEP, 10% glycerol, Hsp90EEVD (400–500 μM) into Tom70 (30 μM), mean ± SD of 3 measurements, read-out: KD of Hsp90EEVD to Tom70 alone. The procedure:
as §1, §2, §3

The target in assay [6] is T2, Tom70:Orf9bHelix complex. The experiment in a line: biochemical. Format: binding, human Tom70; SARS-CoV-2 Orf9b.

Where no end group is shown, it is not given here.

T2 sequence (P0DTD2 44-77 partner limits assumed, one chain of several): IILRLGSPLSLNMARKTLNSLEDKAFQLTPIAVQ

On to “Hsp90: human Hsp90α (residues 1–732), expressed in E. coli”, for which the Kd (commonly the equilibrium constant for the complex coming apart) in assay [1] (20°C, 20 mM sodium phosphate pH 8, 150 mM NaCl, 2 mM TCEP, 10% glycerol, Tom70 (400 μM) into Hsp90 (20 μM), 1:1 model, mean ± SD of 3 measurements, read-out: binding affinity (KD) of full-length Hsp90 to free Tom70) was 3 ± 1 µM; at Tom70:Orf9b complex [2], 22 ± 1 µM. Besides, the “thermodynamic signature of binding to free Tom70” value in assay [1] (20°C, pH 8, Fig 5C) is given as “a favorable entropy change was the major driving force”. In assay [1] (higher affinity than the Hsp90EEVD peptide), the “affinity of full-length Hsp90 to free Tom70 relative to Hsp90EEVD peptide” value stood at 4 fold. For the same substance, the “thermodynamic signature of binding to Tom70-Orf9bHelix complex” value with Tom70:Orf9bHelix complex [3] is on record as “driven entirely by a favorable enthalpy change”. For the same substance, the “association rate of Hsp90 to free Tom70 (BLI, direct)” value in the assay with Tom70 (BLI, 25°C, pH 7, 150 mM NaCl, 1% BSA, 0.6 M sucrose, 1 mM TCEP, Hsp90 immobilized) was “too rapid to quantify accurately”. In the assay on Tom70 (indirectly estimated, kon = koff(BLI)/KD(ITC), BLI 25°C pH 7, ITC 20°C pH 8, SD of at least two measurements), the “kon for Hsp90 binding to free Tom70” value was 500000 ± 200000 M⁻¹ s⁻¹. Further, the “kon for Hsp90 binding to Tom70 in presence of bound full-length Orf9b” value in the assay with Tom70:Orf9b complex [4] amounted to 20000 ± 10000 M⁻¹ s⁻¹.

Take YDTSRMEEVD [Hsp90EEVD]: the Kd (in assay [5]; on Tom70:Orf9bHelix complex [6]) was 12 ± 1 µM throughout.
